The values that follow come from publication PMC11995216, “End-to-End Backbone Cyclization Enhances Passive Permeability of bRo5 Oligomeric Depsipeptides with Nonlinear Size Dependence” (ACS Medicinal Chemistry Letters, 2025).

Several values for one entry are separate records, joined by “and”; a condition that tells them apart may be missing. Equal values may be shown once. Read-outs that look alike come from different tables or passages of the source. Starred links: 1 amine or outer side, 2 acyl side, 3 side chain; linkers in the order of their positions; H or OH if unused. Non-standard residues stand in square brackets, D forms with d. Residues, ends and D or L forms follow the SMILES beside them. X1 = CCCCC[C@H](O[*:1])C(=O)[*:2]; Ahp(2) = CCCCC[C@H](N)C(=O)O; dNMeA = CN[C@H](C)C(=O)O

One may read the Papp as the rate of passage across a membrane or cell layer, normalised by area and donor concentration. Low values mean poor permeation, high ones ready permeation.

For data set [1] the following is noted: PAMPA, 500 uM. On the technique in general: The PAMPA barrier holds no transporters, so it reflects passive diffusion.
For data set [2] the following is noted: PAMPA, cited from earlier work; for LogPapp: ratio-based method, series 2 macrocycles, previously reported, ref Thorpe et al., Chem. Sci. 2024, 15, 14977.
Data set [3] concerns PAMPA.
For data set [4], the system named is PAMPA. The note with it: Well 3 / [acc]; Well 3; initial concentration 500 uM; UV detection.
The test system of data set [5] is PAMPA. The note with it: calculated using Supplement Equation 1, UV detection.
The test system of data set [6] is PAMPA. The conditions noted are these: UV detection.
For data set [7], the system named is PAMPA. The note with it: initial concentration 500 uM, UV detection.
Data set [8] concerns PAMPA. The conditions noted are these: initial concentration 500 uM.
The next data set can be described thus: in vitro. The conditions noted are these: PAMPA, Papp.
A short description of data set [9]: PAMPA, permeability assay across an artificial membrane. The conditions noted are these: increase: difference between percent diffusion of macrocycle vs linear counterpart.
For a further data set, the system named is Caco‐2. Nature of the data set: Experimental Caco‐2 permeability. The format is in vitro ADME. The conditions noted are these: Caco‐2 experiments, series 2. The procedure:
Johnston et al. Supporting information
5.1 Comparison of Experimental Caco‐2 Papp to Calculated LogP
Experimental Caco‐2 vs. Calculated Permeabilities fo r Series 2
*C2.3 was not detected in Caco‐2 experiments
VI. LC/MS and ELSD Traces
In all cases, the large peak near the beginning of the run (R.T. 2‐6 minutes), is the DMSO solvent front.
(also on this page, place not known: 00 . 511 . 522 . 533 . 5 Caco2 Papp (x 10‐6 cm/s) Experimental for)

`CCCCC[C@@H]1NC(=O)[C@@H](C)N(C)C(=O)[C@H](CCCCC)NC(=O)[C@@H](C)N(C)C(=O)[C@H](CCCCC)NC(=O)[C@@H](C)N(C)C(=O)[C@H](CCCCC)NC(=O)[C@@H](C)N(C)C1=O` [Compound C2.5] (cyclo([Ahp(2)][dNMeA][Ahp(2)][dNMeA][Ahp(2)][dNMeA][Ahp(2)][dNMeA])): the Δ % diffusion entry in data set [1] was “↑6%”. Also, the LogPapp in data set [2] was -5.31 ± 0.04.

Regarding `CCCCC[C@@H]1OC(=O)[C@@H](C)N(C)C1=O` [Compound C1.1], in [1], the Δ % diffusion result was “↑22%”. The apparent permeability (Papp) with PAMPA [3] (Papp (x 10^-6 cm/s) – ELSD Detection / [row 1], ELSD Detection) was found to be 14.3 ×10⁻⁶ cm/s; in the data set with PAMPA [3] (Papp (x 10^-6 cm/s) – ELSD Detection / [row 2], ELSD Detection), 13.6 ×10⁻⁶ cm/s; in the data set with PAMPA [3] (Papp (x 10^-6 cm/s) – ELSD Detection / [row 3], ELSD Detection) it was 13.9 ×10⁻⁶ cm/s; in the data set on PAMPA [3] (Papp (x 10^-6 cm/s) – ELSD Detection / [row 4], ELSD Detection) it was 15.4 ×10⁻⁶ cm/s; with PAMPA [3] (Papp (x 10^-6 cm/s) – ELSD Detection / [row 5], ELSD Detection) it was 15 ×10⁻⁶ cm/s; in the data set with PAMPA [3] (Papp (x 10^-6 cm/s) – ELSD Detection / [row 6], ELSD Detection) it was 11.7 ×10⁻⁶ cm/s. In addition, the Papp in the data set with PAMPA [3] (Papp (x 10^-6 cm/s) – ELSD Detection / [row 7], ELSD Detection) came out at 14.1 ×10⁻⁶ cm/s; in the data set with PAMPA [3] (Papp (x 10^-6 cm/s) – ELSD Detection / [row 8], ELSD Detection) it was 15 ×10⁻⁶ cm/s; in the data set on PAMPA [3] (Papp (x 10^-6 cm/s) – ELSD Detection / [row 9], ELSD Detection), 14.8 ×10⁻⁶ cm/s; in the data set with PAMPA [3] (Papp (x 10^-6 cm/s) – ELSD Detection / [row 10], ELSD Detection), 13.6 ×10⁻⁶ cm/s; in the data set with PAMPA [3] (Papp (x 10^-6 cm/s) – UV Detection / [row 1], UV Detection), 15.1 ×10⁻⁶ cm/s; in the data set with PAMPA [3] (Papp (x 10^-6 cm/s) – UV Detection / [row 2], UV Detection), 14.2 ×10⁻⁶ cm/s. Besides, the apparent permeability (Papp) worked out at 12.7 ×10⁻⁶ cm/s with PAMPA [3] (Papp (x 10^-6 cm/s) – UV Detection / [row 3], UV Detection); 18 ×10⁻⁶ cm/s in the data set on PAMPA [3] (Papp (x 10^-6 cm/s) – UV Detection / [row 4], UV Detection); 19 ×10⁻⁶ cm/s with PAMPA [3] (Papp (x 10^-6 cm/s) – UV Detection / [row 5], UV Detection); 13.8 ×10⁻⁶ cm/s in the data set with PAMPA [3] (Papp (x 10^-6 cm/s) – UV Detection / [row 6], UV Detection); 11.2 ×10⁻⁶ cm/s in the data set on PAMPA [3] (Papp (x 10^-6 cm/s) – UV Detection / [row 7], UV Detection); 12.7 ×10⁻⁶ cm/s in the data set with PAMPA [3] (Papp (x 10^-6 cm/s) – UV Detection / [row 8], UV Detection). The apparent permeability (Papp) in the data set on PAMPA [3] (Papp (x 10^-6 cm/s) – UV Detection / [row 9], UV Detection) amounted to 14.3 ×10⁻⁶ cm/s; in the data set with PAMPA [3] (Papp (x 10^-6 cm/s) – UV Detection / [row 10], UV Detection) it was 15 ×10⁻⁶ cm/s. Moreover, in the data set on PAMPA [4], the acceptor concentration after incubation was found to be 193 µM. For the same molecule, the %T in the data set with PAMPA [5] (Well 1 / %T, Well 1) was 0.91% and 0.93%; in the data set on PAMPA [5] (Well 2 / %T, Well 2) it was 0.86% and 0.92%; with PAMPA [5] (Well 3 / %T, Well 3), 0.89%; with PAMPA [5] (Well 4 / %T, Well 4) it was 0.92% and 0.96%; in the data set with PAMPA [5] (Well 5 / %T, Well 5), 0.93% and 0.99%. The % recovery in the data set with PAMPA [6] (Well 1 / %R, Well 1) is 93% and 89%; with PAMPA [6] (Well 2 / %R, Well 2) it was 93% and 90%; in the data set with PAMPA [6] (Well 3 / %R, Well 3), 92% and 95%; in the data set with PAMPA [6] (Well 4 / %R, Well 4), 99% and 95%; in the data set with PAMPA [6] (Well 5 / %R, Well 5) it was 99%. In addition, the donor concentration after incubation is 259 µM and 253 µM with PAMPA [7] (Well 1 / [donor], Well 1); 262 µM and 271 µM with PAMPA [7] (Well 2 / [donor], Well 2); 267 µM and 276 µM in the data set with PAMPA [7] (Well 3 / [donor], Well 3); 264 µM and 266 µM with PAMPA [7] (Well 4 / [donor], Well 4); 250 µM and 261 µM with PAMPA [7] (Well 5 / [donor], Well 5). Moreover, the Acceptor Concentration worked out at 225 µM in the data set with PAMPA [8] (Acceptor Concentration (uM) – ELSD Detection / [row 1], ELSD Detection); 205 µM in the data set with PAMPA [8] (Acceptor Concentration (uM) – ELSD Detection / [row 2], ELSD Detection); 212 µM in the data set on PAMPA [8] (Acceptor Concentration (uM) – ELSD Detection / [row 3], ELSD Detection); 216 µM with PAMPA [8] (Acceptor Concentration (uM) – ELSD Detection / [row 4], ELSD Detection); 207 µM with PAMPA [8] (Acceptor Concentration (uM) – ELSD Detection / [row 5], ELSD Detection); 206 µM in the data set with PAMPA [8] (Acceptor Concentration (uM) – ELSD Detection / [row 6], ELSD Detection). Moreover, the Acceptor Concentration with PAMPA [8] (Acceptor Concentration (uM) – ELSD Detection / [row 7], ELSD Detection) was 216 µM; in the data set on PAMPA [8] (Acceptor Concentration (uM) – ELSD Detection / [row 8], ELSD Detection), 218 µM; in the data set with PAMPA [8] (Acceptor Concentration (uM) – ELSD Detection / [row 9], ELSD Detection) it was 208 µM; with PAMPA [8] (Acceptor Concentration (uM) – ELSD Detection / [row 10], ELSD Detection), 202 µM; with PAMPA [8] (Acceptor Concentration (uM) – UV Detection / [row 1], UV Detection) it was 208 µM; with PAMPA [8] (Acceptor Concentration (uM) – UV Detection / [row 2], UV Detection), 204 µM. For the same molecule, the Acceptor Concentration in the data set on PAMPA [8] (Acceptor Concentration (uM) – UV Detection / [row 3], UV Detection) was found to be 193 µM; with PAMPA [8] (Acceptor Concentration (uM) – UV Detection / [row 4], UV Detection), 231 µM; with PAMPA [8] (Acceptor Concentration (uM) – UV Detection / [row 5], UV Detection), 245 µM; with PAMPA [8] (Acceptor Concentration (uM) – UV Detection / [row 6], UV Detection) it was 193 µM; with PAMPA [8] (Acceptor Concentration (uM) – UV Detection / [row 7], UV Detection), 178 µM; in the data set with PAMPA [8] (Acceptor Concentration (uM) – UV Detection / [row 8], UV Detection) it was 199 µM. The Acceptor Concentration was 208 µM in the data set on PAMPA [8] (Acceptor Concentration (uM) – UV Detection / [row 9], UV Detection) and 209 µM with PAMPA [8] (Acceptor Concentration (uM) – UV Detection / [row 10], UV Detection). For the same molecule, the results for the Papp at 500 uM in the data set “in vitro” and in the data set “in vitro” (Ave) were 14.6 ± 2.38 ×10⁻⁶ cm/s and 14.1 ×10⁻⁶ cm/s, respectively.

Turning to `CCCCC[C@@H]1NC(=O)[C@@H](C)N(C)C(=O)[C@H](CCCCC)OC(=O)[C@@H](C)N(C)C(=O)[C@H](CCCCC)OC(=O)[C@@H](C)N(C)C(=O)[C@H](CCCCC)NC(=O)[C@@H](C)N(C)C1=O` [Compound C2.2] (cyclo([Ahp(2)][dNMeA][Ahp(2)][dNMeA][X1][dNMeA][X1][dNMeA])), the LogPapp in data set [2] is -5.05 ± 0.03. In [9], the Δ % diffusion entry was “↑17%”.

Take `CCCCC[C@@H]1NC(=O)[C@@H](C)N(C)C(=O)[C@H](CCCCC)NC(=O)[C@@H](C)N(C)C(=O)[C@H](CCCCC)OC(=O)[C@@H](C)N(C)C(=O)[C@H](CCCCC)NC(=O)[C@@H](C)N(C)C1=O` [Compound C2.4] (cyclo([Ahp(2)][dNMeA][Ahp(2)][dNMeA][Ahp(2)][dNMeA][X1][dNMeA])): the LogPapp in data set [2] is -5.33 ± 0.07. The Δ % diffusion result in data set [9] is “↑7%”.

With `CCCCC[C@@H]1NC(=O)[C@@H](C)N(C)C(=O)[C@H](CCCCC)OC(=O)[C@@H](C)N(C)C(=O)[C@H](CCCCC)NC(=O)[C@@H](C)N(C)C(=O)[C@H](CCCCC)OC(=O)[C@@H](C)N(C)C1=O` [Compound C2.3] (cyclo([Ahp(2)][dNMeA][X1][dNMeA][Ahp(2)][dNMeA][X1][dNMeA])), the LogPapp in data set [2] is reported as -5.23 ± 0.04. In the data set with Caco‐2, the “Experimental Caco‐2 Papp” value is on record as “not detected”. Besides, the Δ % diffusion result in data set [9] was “↑10%”.

With `CCCCC[C@@H]1NC(=O)[C@@H](C)N(C)C(=O)[C@H](CCCCC)OC(=O)[C@@H](C)N(C)C(=O)[C@H](CCCCC)OC(=O)[C@@H](C)N(C)C(=O)[C@H](CCCCC)OC(=O)[C@@H](C)N(C)C1=O` [Compound C2.1] (cyclo([Ahp(2)][dNMeA][X1][dNMeA][X1][dNMeA][X1][dNMeA])), in [2], the LogPapp is on record as -4.91 ± 0.09. For the same molecule, the Δ % diffusion entry in data set [9] is on record as “↑19%”.

Take `CC(C)NC[C@H](O)COc1cccc2ccccc12` [(S)‐Propranolol, reference compound]: in data set [2] (ref Schmidt, D., Lynch, J. 2003, Millipore), the “Literature Papp” value is on record as 10.0 x 10‐6.
